What was measured:
Fabry patients [1] = experiment: ERT-naïve study: renal function (eGFR); format: in vivo, human; conditions: for Annualized Change in eGFRCKD-EPI, mean ± SE: ERT-Naïve; for mean±SEM annualized rate of change of eGFRCKD-EPI: ERT-naïve study, baseline to 18/24 months
Procedure: One study was a 24-month trial, including a 6-month double-blind, placebo-controlled period, in 67 ERT-naïve patients. The other study was an active-controlled, 18-month trial in 57 ERT-experienced patients with a 12-month open-label extension (OLE). Both the ERT-naïve and ERT-experienced studies included Fabry patients having an eGFR of ≥30 mL/min/1.73 m^2. The study designs for these studies are shown in FIGS. 10A-B. In the ERT-naïve study, the primary efficacy parameter was GL-3 inclusions per kidney interstitial capillary. […] A further analysis of data from these studies examined annualized change in […], WBC α-Gal A activity and plasma lyso-Gb3 levels based on renal function at baseline. The results for each renal subgroup are shown in Table 9 below, with the ERT-naïve study subgroups based on […] and the ERT-experienced study subgroups based on mGFRiohexol.

[2] = Additional simulations on renal impairment subjects (Example 4); design: species or system human; conditions: simulation
Fabry patients [3] = experiment: Analysis of 52 ERT-naive patients by baseline proteinuria: eGFR; format: in vivo, human; conditions: for Annualized eGFRCKD-EPI Change Rate, Mean (SE): ERT-naive, migalastat HCl 150 mg QOD ≥17 months; for Annualized eGFR Rate of Change (eGFRMDRD), Mean (SEM): Migalastat cohort
Procedure: Another analysis was performed on patients who participated in multiple studies for the use of migalastat. […] Results for […] were compared with changes in […] reported in the literature for untreated patients with Fabry disease (natural history cohort; Schiffmann R et al. Nephrol Dial Transplant. 2009; 24:2102-11) and are shown in Table 15 below: […]

[4] = Plasma migalastat concentration in two Fabry patients with renal impairment (Example 3); format: in vivo, human; conditions: for concentration at 3 h: 3 Hrs Post
Procedure: Thus, two Fabry patients with renal impairment were evaluated. One patient (P1) had moderate renal impairment, while the other patient (P2) had severe renal impairment. […] The comparison with the results from the ERT-naïve study allows for comparison of PK in the Fabry population with mostly normal, but some mild and a few moderately impaired Fabry patients. None of the patients in the ERT-naïve study had severe renal impairment because these patients were excluded from the study.

Fabry patients [5] = experiment: ERT-experienced study: renal function (eGFR, mGFR); format: in vivo, human; conditions: for Annualized Change in eGFRCKD-EPI, mean ± SE: ERT-Experienced, Migalastat 0-18 months; for mean annualized rate of change of eGFRCKD-EPI / mean annualized rate of change mGFRiohexol / mean±SE annualized rate of change of eGFRCKD-EPI: ERT-experienced study; for mean annualized rate of change of eGFRCKD-EPI: baseline to 18 months (FIG. 12A); for mean annualized rate of change mGFRiohexol: baseline to 18 months (FIG. 12B); for mean±SE annualized rate of change of eGFRCKD-EPI: baseline to 18 months (FIG. 13)
Procedure: One study was a 24-month trial, including a 6-month double-blind, placebo-controlled period, in 67 ERT-naïve patients. The other study was an active-controlled, 18-month trial in 57 ERT-experienced patients with a 12-month open-label extension (OLE). Both the ERT-naïve and ERT-experienced studies included Fabry patients having an eGFR of ≥30 mL/min/1.73 m^2. […] Annualized change in eGFR using the Modification of Diet in Renal Disease ([…]) was also calculated. […] Although the number of patients with moderate renal impairment included in this analysis is two (compared to three for the ERT-naïve study), the data supports the efficacy of migalastat when administered to patients with some form of renal impairment. A further analysis of data from these studies examined annualized change in […], WBC α-Gal A activity and plasma lyso-Gb3 levels based on renal function at baseline. The results for each renal subgroup are shown in Table 9 below, with the ERT-naïve study subgroups based on […] and the ERT-experienced study subgroups based on mGFRiohexol.

Fabry patients [6] = experiment: Long-term analysis of 12 patients that completed multiple studies: eGFR; format: in vivo, human
Text: In addition to the studies described above, other patients also received migalastat therapy in other studies such as dose-finding studies and/or long-term extension studies. […] 12 patients that completed multiple studies were further analyzed. Linear regression was used to calculate the annualized rate of change in […] from baseline.

α-Gal A = target: T1, α-Gal A (Homo sapiens, UniProt P06280); conditions: selective and reversible binding; cited from earlier work
T1 sequence (P06280 32-429): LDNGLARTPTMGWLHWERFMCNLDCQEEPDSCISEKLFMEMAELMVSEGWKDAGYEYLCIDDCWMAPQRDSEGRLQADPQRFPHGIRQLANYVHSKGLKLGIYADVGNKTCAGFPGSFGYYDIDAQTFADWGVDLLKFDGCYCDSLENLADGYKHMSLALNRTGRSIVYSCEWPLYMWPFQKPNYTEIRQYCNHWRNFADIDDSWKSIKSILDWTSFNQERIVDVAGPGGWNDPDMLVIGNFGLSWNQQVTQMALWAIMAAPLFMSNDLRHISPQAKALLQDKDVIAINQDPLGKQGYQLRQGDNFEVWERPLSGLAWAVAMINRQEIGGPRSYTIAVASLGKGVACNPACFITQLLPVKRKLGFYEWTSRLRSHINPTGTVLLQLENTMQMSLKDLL

[7] = Females, baseline urine protein 100-1000 mg/24 h
[8] = Females, baseline urine protein <100 mg/24 h
[9] = Females, baseline urine protein >1000 mg/24 h
[10] = Males, baseline urine protein 100-1000 mg/24 h
[11] = Males, baseline urine protein <100 mg/24 h
[12] = Males, baseline urine protein >1000 mg/24 h
[13] = P1, second measurement set 6 months after the first
[14] = mild or moderate renal impairment

AUC Ratio ([2]; Mild (>=60-<90) vs Normal): 1.2
AUC Ratio ([2]; Moderate (>=30-<60) vs Normal): 1.9
AUC Ratio ([2]; Severe (<30) vs Normal): 4.8
increase of C48 concentration [4, 13]: 49%
increase of Cmax [4, 13]: 33%
concentration at 3 h ([4]; human, plasma, Migalastat Conc 6 months later, Fabry patient P1, moderate renal impairment): 2160 ng/mL
concentration at 24 h ([4]; human, plasma, Migalastat Conc 6 months later, Fabry patient P1, moderate renal impairment, 24 Hrs Post): 211 ng/mL
concentration at 48 h ([4]; human, plasma, Migalastat Conc 6 months later, Fabry patient P1, moderate renal impairment, 48 Hrs Post): 62.4 ng/mL
concentration at 3 h ([4]; human, plasma, Migalastat Conc, Fabry patient P1, moderate renal impairment): 1620 ng/mL
concentration at 24 h ([4]; human, plasma, Migalastat Conc, Fabry patient P1, moderate renal impairment, 24 Hrs Post): 168 ng/mL
concentration at 48 h ([4]; human, plasma, Migalastat Conc, Fabry patient P1, moderate renal impairment, 48 Hrs Post): 41.8 ng/mL
concentration at 2 h ([4]; human, plasma, Migalastat Concentration, Fabry patient P2, severe renal impairment, 2 h, Occasion 1): 564 ng/mL
concentration at 24 h ([4]; human, plasma, Migalastat Concentration, Fabry patient P2, severe renal impairment, 24 h, Occasion 2): 569 ng/mL
concentration at 48 h ([4]; human, plasma, Migalastat Concentration, Fabry patient P2, severe renal impairment, 48 h, Occasion 1): 322 ng/mL
concentration at 48 h ([4]; human, plasma, Migalastat Concentration, Fabry patient P2, severe renal impairment, 48 h, Occasion 2): 260 ng/mL
SMILES: OC[C@H]1NC[C@H](O)[C@@H](O)[C@H]1O [migalastat, (2R,3S,4R,5S)-2-(hydroxymethyl) piperdine-3,4,5-triol]
Annualized Change in eGFRCKD-EPI, mean ± SE (Fabry patients [1]; Migalastat→Migalastat 0-24 months, renal subgroup 30 to < 60): +3.2 ± 1.1 mL/min/1.73 m^2
Annualized Change in eGFRCKD-EPI, mean ± SE (Fabry patients [1]; Migalastat→Migalastat 0-24 months, renal subgroup ≥60): −0.7 ± 0.6 mL/min/1.73 m^2
Annualized Change in eGFRCKD-EPI, mean ± SE (Fabry patients [1]; Placebo→Migalastat 6-24 months, renal subgroup 30 to < 60): −2.8 ± 2.8 mL/min/1.73 m^2
Annualized Change in eGFRCKD-EPI, mean ± SE (Fabry patients [1]; Placebo→Migalastat 6-24 months, renal subgroup ≥60): +0.1 ± 0.7 mL/min/1.73 m^2
mean±SEM annualized rate of change of eGFRCKD-EPI (Fabry patients [1]; mild renal impairment): −0.8±1.01 mL/min/1.73 m^2/year
mean±SEM annualized rate of change of eGFRCKD-EPI (Fabry patients [1]; moderate renal impairment): −0.7±3.97 mL/min/1.73 m^2/year
mean±SEM annualized rate of change of eGFRCKD-EPI (Fabry patients [1]; normal renal function): 0.2±0.90 mL/min/1.73 m^2/year
Annualized eGFRCKD-EPI Change Rate, Mean (SE) (Fabry patients [3]; [7]): −0.3 (1.0) mL/min/1.73 m^2
Annualized eGFRCKD-EPI Change Rate, Mean (SE) (Fabry patients [3]; [8]): −0.9 (0.4) mL/min/1.73 m^2
Annualized eGFRCKD-EPI Change Rate, Mean (SE) (Fabry patients [3]; [9]): −2.2 (1.3) mL/min/1.73 m^2
Annualized eGFRCKD-EPI Change Rate, Mean (SE) (Fabry patients [3]; [10]): 0.2 (0.8) mL/min/1.73 m^2
Annualized eGFRCKD-EPI Change Rate, Mean (SE) (Fabry patients [3]; [11]): 0.4 (1.0) mL/min/1.73 m^2
Annualized eGFRCKD-EPI Change Rate, Mean (SE) (Fabry patients [3]; [12]): −5.1 (0.1) mL/min/1.73 m^2
Annualized eGFR Rate of Change (eGFRMDRD), Mean (SEM) (Fabry patients [3]; [7]): 1.3 (1.5) mL/min/m^2
Annualized eGFR Rate of Change (eGFRMDRD), Mean (SEM) (Fabry patients [3]; [8]): −0.9 (0.5) mL/min/m^2
Annualized eGFR Rate of Change (eGFRMDRD), Mean (SEM) (Fabry patients [3]; [9]): −1.7 (1.1) mL/min/m^2
Annualized eGFR Rate of Change (eGFRMDRD), Mean (SEM) (Fabry patients [3]; [10]): 0.9 (1.0) mL/min/m^2
Annualized eGFR Rate of Change (eGFRMDRD), Mean (SEM) (Fabry patients [3]; [11]): 1.2 (1.2) mL/min/m^2
Annualized eGFR Rate of Change (eGFRMDRD), Mean (SEM) (Fabry patients [3]; [12]): −4.3 (0.1) mL/min/m^2
Annualized Change in eGFRCKD-EPI, mean ± SE (Fabry patients [5]; renal subgroup 30 to < 60): −4.2 ± 2.7 mL/min/1.73 m^2
Annualized Change in eGFRCKD-EPI, mean ± SE (Fabry patients [5]; renal subgroup ≥60): −0.4 ± 0.8 mL/min/1.73 m^2
mean annualized rate of change of eGFRCKD-EPI (Fabry patients [5]; [14]): −3.33 mL/min/1.73 m^2/year
mean annualized rate of change of eGFRCKD-EPI (Fabry patients [5]; normal renal function): −0.4 mL/min/1.73 m^2/year
mean annualized rate of change mGFRiohexol (Fabry patients [5]; [14]): −3.51 mL/min/1.73 m^2/year
mean annualized rate of change mGFRiohexol (Fabry patients [5]; normal renal function): −4.35 mL/min/1.73 m^2/year
mean±SE annualized rate of change of eGFRCKD-EPI (Fabry patients [5]; mild renal impairment): −0.2±1.25 mL/min/1.73 m^2/year
mean±SE annualized rate of change of eGFRCKD-EPI (Fabry patients [5]; moderate renal impairment): −4.5±2.68 mL/min/1.73 m^2/year
mean±SE annualized rate of change of eGFRCKD-EPI (Fabry patients [5]; normal renal function): −2.0±0.57 mL/min/1.73 m^2/year
Annualized Rate of Change in eGFRCKD-EPI (Fabry patients [6]; entire duration of migalastat treatment, Patient 1): −0.853 mL/min/1.72 m^2
Annualized Rate of Change in eGFRCKD-EPI (Fabry patients [6]; entire duration of migalastat treatment, Patient 2): 0.584 mL/min/1.72 m^2
Annualized Rate of Change in eGFRCKD-EPI (Fabry patients [6]; entire duration of migalastat treatment, Patient 3): −2.838 mL/min/1.72 m^2
Annualized Rate of Change in eGFRCKD-EPI (Fabry patients [6]; entire duration of migalastat treatment, Patient 4): 0.488 mL/min/1.72 m^2
Annualized Rate of Change in eGFRCKD-EPI (Fabry patients [6]; entire duration of migalastat treatment, Patient 5): 0.001 mL/min/1.72 m^2
Annualized Rate of Change in eGFRCKD-EPI (Fabry patients [6]; entire duration of migalastat treatment, Patient 6): −2.179 mL/min/1.72 m^2
Annualized Rate of Change in eGFRCKD-EPI (Fabry patients [6]; entire duration of migalastat treatment, Patient 7): −0.704 mL/min/1.72 m^2
Annualized Rate of Change in eGFRCKD-EPI (Fabry patients [6]; entire duration of migalastat treatment, Patient 8): −1.09 mL/min/1.72 m^2
Annualized Rate of Change in eGFRCKD-EPI (Fabry patients [6]; entire duration of migalastat treatment, Patient 9): −0.443 mL/min/1.72 m^2
Annualized Rate of Change in eGFRCKD-EPI (Fabry patients [6]; entire duration of migalastat treatment, Patient 10): 0.219 mL/min/1.72 m^2
Annualized Rate of Change in eGFRCKD-EPI (Fabry patients [6]; entire duration of migalastat treatment, Patient 11): −0.342 mL/min/1.72 m^2
Annualized Rate of Change in eGFRCKD-EPI (Fabry patients [6]; entire duration of migalastat treatment, Patient 12): −0.871 mL/min/1.72 m^2
Annualized Rate of Change in eGFRCKD-EPI (Fabry patients [6]; entire migalastat treatment period (mean exposure 8.2 years), Mean of 12 patients): −0.67 mL/min/1.72 m^2
binding to the active site of wild-type α-Gal A and specific mutant forms of α-Gal A (α-Gal A): high affinity

Reference: US20210379035A1, “Methods Of Treating Fabry Patients Having Renal Impairment” (Amicus Therapeutics, Inc., priority 2017, published 2021)
